Measured values taken from patent US20260209214A1, “LSD1 MODULATORS” (RECURSION PHARMACEUTICALS, INC., priority 2022, published 2026).

Biological target: Recombinant human LSD1 (Homo sapiens, UniProt O60341)
Experiment: LSD1 inhibition assay (HTRF LSD1 Histone H3K4 mono-demethylation assay, me1->me0)
Format: biochemical
Conditions: 20 nM recombinant human LSD1, 95 nM H3K4(me1) biotinylated peptide, 15 min preincubation, 60 min at 25° C., read-out: LSD1 inhibition IC50 (nM range)
Procedure, shortened: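 Recombinant human LSD1 (20 nM) pre-incubated 15 min with 10 semi-log compound doses, then 95 nM biotinylated H3K4me1 peptide for 60 min at 25 °C in pH 8.5 Tris/NaCl buffer with 10 μM FAD, 1 mM DTT. HTRF me0-antibody read after 90 min; IC50 from 4-parameter fit.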

| SMILES | IC50 |
| --- | --- |
| N#Cc1ccc(-c2cccc(C[C@H]3CNCCO3)c2-c2ocnc2F)cc1F [Example 15, 3-fluoro-2′-(4-fluoro-1,3-oxazol-5-yl)-3′-{[(2S)-morpholin-2-yl]methyl}-[1,1′-biphenyl]-4-carbonitrile] | < 10 nM |
| N#Cc1ccc(-c2cccc(CC3CNCCO3)c2-c2cocn2)cc1F (stereo not drawn) [Example 92, 3-fluoro-3′-[(morpholin-2-yl)methyl]-2′-(1,3-oxazol-4-yl)-[1,1′-biphenyl]-4-carbonitrile] | 100 to 1000 nM |
| N#Cc1ccc(-c2cc(C[C@H]3CNCCO3)ccc2N2CCC2)cc1F (single isomer, unassigned) [Example 54] | 100 to 1000 nM |
| N#Cc1ccc(-c2cc(CC3CNCCO3)ccc2N[C@H]2CCCOC2)cc1F (stereo partly drawn) [Example 123, 3-fluoro-5′-[(morpholin-2-yl)methyl]-2′-{[(3S)-oxan-3-yl]amino}-[1,1′-biphenyl]-4-carbonitrile] | > 1000 nM |
| CNC1CCN(Cc2cccc(-c3ccc(C#N)c(F)c3)c2-c2cnco2)C1 (stereo not drawn) [Example 336, 3-fluoro-3'-{[3-(methylamino)pyrrolidin-1-yl]methyl}-2'-(1,3-oxazol-5-yl)-[1,1'-biphenyl]-4-carbonitrile] | 10 to 25 nM |
| CN[C@@H]1C[C@@H]2CC[C@H]1N2Cc1cccc(-c2ccc(C#N)cc2)c1-c1ccns1 (single isomer, unassigned) [Example 173] | < 10 nM |
| N#Cc1ccc(-c2cccc(CC3CCCNC3)c2-c2ccns2)cc1F (stereo not drawn) [Example 71, 3-fluoro-3′-[(piperidin-3-yl)methyl]-2′-(1,2-thiazol-5-yl)-[1,1′-biphenyl]-4-carbonitrile] | < 10 nM |
| N#Cc1ccc(-c2cc(CN3[C@@H]4CC[C@H]3[C@@H](N)C4)ccc2OCC(F)(F)F)cc1F (racemic) [Example 316, 5'-{[(1S,2S,4R)-2-amino-7-azabicyclo[2.2.1]heptan-7-yl]methyl}-3-fluoro-2'-(2,2,2-trifluoroethoxy)-[1,1'-biphenyl]-4-carbonitrile] | 10 to 25 nM |
| Cc1cc(CNCC2CCCN(C)C2)c(Cl)c(-c2ccc(C#N)c(F)c2)c1 (stereo not drawn) [Example 346, 2'-chloro-3-fluoro-5'-methyl-3'-({[(1-methylpiperidin-3-yl)methyl]amino}methyl)-[1,1'-biphenyl]-4-carbonitrile] | 100 to 1000 nM |
| Cn1nc2ccc(-c3ccc(CC4CNCCO4)cc3-c3ccc(C#N)c(F)c3)cc2c1Cl (stereo not drawn) [Example 91, 2′-(3-chloro-2-methyl-2H-indazol-5-yl)-3-fluoro-5′-[(morpholin-2-yl)methyl]-[1,1′-biphenyl]-4-carbonitrile] | 25 to 100 nM |
| CN1CCC12CCN(Cc1c(F)ccc(-c3ccc(C#N)c(F)c3)c1Cl)C2 (stereo not drawn) [Example 289, 2'-chloro-3,4'-difluoro-3'-({1-methyl-1,6-diazaspiro[3.4]octan-6-yl}methyl)-[1,1'-biphenyl]-4-carbonitrile] | 100 to 1000 nM |
| COCC1(O)CCCN(c2ccc(CC3CNCCO3)cc2-c2ccc(C#N)c(F)c2)CC1 (stereo not drawn) [Example 152, 3-fluoro-2′-[4-hydroxy-4-(methoxymethyl)azepan-1-yl]-5′-[(morpholin-2-yl)methyl]-[1,1′-biphenyl]-4-carbonitrile] | 100 to 1000 nM |
| N#Cc1ccc(-c2cc(CN3[C@@H]4CC[C@H]3[C@@H](N)C4)ccc2N2CCC(CF)CC2)cc1F (racemic) [Example 235, 5'-{[(1S,2S,4R)-2-amino-7-azabicyclo[2.2.1]heptan-7-yl]methyl}-3-fluoro-2'-[4-(fluoromethyl)piperidin-1-yl]-[1,1'-biphenyl]-4-carbonitrile] | 10 to 25 nM |
| Cc1cc(CC2CNCCO2)c(-c2cncs2)c(-c2ccc(C#N)cc2)c1 (stereo not drawn) [Example 39, 5′-methyl-3′-[(morpholin-2-yl)methyl]-2′-(1,3-thiazol-5-yl)-[1,1′-biphenyl]-4-carbonitrile] | 10 to 25 nM |
| N#Cc1ccc(-c2cc(CC3CNCCO3)ccc2N2CCC2)cc1Cl (stereo not drawn) [Example 134, 4-[2-(azetidin-1-yl)-5-(morpholin-2-ylmethyl)phenyl]-2-chloro-benzonitrile] | > 1000 nM |
| N#Cc1ccc(-c2cccc(CN3CCC4(CCNC4)C3)c2-c2cnco2)cc1 (stereo not drawn) [Example 325, 3'-({2,7-diazaspiro[4.4]nonan-2-yl}methyl)-2'-(1,3-oxazol-5-yl)-[1,1'-biphenyl]-4-carbonitrile] | 10 to 25 nM |
| N#Cc1ccc(-c2cccc(CC3CNCCO3)c2-c2ccno2)cc1F (stereo not drawn) [Example 16, 3-fluoro-3′-[(morpholin-2-yl)methyl]-2′-(1,2-oxazol-5-yl)-[1,1′-biphenyl]-4-carbonitrile] | 10 to 25 nM |
| N#Cc1ccc(-c2cccc(CN3[C@@H]4CC[C@H]3C[C@H](N)C4)c2C2CC2)cc1F [Example 321, 3'-{[(1R,3S,5S)-3-amino-8-azabicyclo[3.2.1]octan-8-yl]methyl}-2'-cyclopropyl-3-fluoro-[1,1'-biphenyl]-4-carbonitrile] | 10 to 25 nM |

| SMILES | IC50 |
| --- | --- |
| COCC1CCN(c2ccc(CC3CNCCO3)cc2-c2ccc(C#N)c(F)c2)CC1 (stereo not drawn) [Example 67, 3-fluoro-2′-[4-(methoxymethyl)piperidin-1-yl]-5′-[(morpholin-2-yl)methyl]-[1,1′-biphenyl]-4-carbonitrile] | 25 to 100 nM |
| N#Cc1ccc(-c2cccc(CN3C[C@]4(N)CC[C@H]3C4)c2OC(F)F)cc1F [Example 177, 3'-{[(1S,4S)-4-amino-2-azabicyclo[2.2.1]heptan-2-yl]methyl}-2'-(difluoromethoxy)-3-fluoro-[1,1'-biphenyl]-4-carbonitrile] | < 10 nM |
| N#Cc1ccc(-c2cccc(C[C@H]3CNCCO3)c2-c2scnc2Cl)cc1F (single isomer, unassigned) [Example 31] | 25 to 100 nM |
| N#Cc1ccc(-c2cccc(CN3[C@@H]4CC[C@H]3[C@@H](N)C4)c2C2CC2)cc1 (racemic) [Example 191, 3'-{[(1S,2S,4R)-2-amino-7-azabicyclo[2.2.1]heptan-7-yl]methyl}-2'-cyclopropyl-[1,1'-biphenyl]-4-carbonitrile] | 25 to 100 nM |
| N#Cc1ccc(-c2ccc(F)c(CN3C[C@]4(N)CC[C@H]3C4)c2-c2cnco2)cc1F [Example 334, 3'-{[(1S,4S)-4-amino-2-azabicyclo[2.2.1]heptan-2-yl]methyl}-3,4'-difluoro-2'-(1,3-oxazol-5-yl)-[1,1'-biphenyl]-4-carbonitrile] | 10 to 25 nM |
| N#Cc1ccc(-c2cccc(CC3CNCCO3)c2-c2ncco2)cc1F (stereo not drawn) [Example 65, 3-fluoro-3′-[(morpholin-2-yl)methyl]-2′-(1,3-oxazol-2-yl)-[1,1′-biphenyl]-4-carbonitrile] | > 1000 nM |
| CN[C@H]1CCN(Cc2cccc(-c3ccc(C#N)c(F)c3)c2C2CC2)C1 [Example 211, 2'-cyclopropyl-3-fluoro-3'-{[(3S)-3-(methylamino)pyrrolidin-1-yl]methyl}-[1,1'-biphenyl]-4-carbonitrile] | 25 to 100 nM |
| Cc1cc(CN2C[C@@H]3C[C@H]2CN3C2COC2)c(Cl)c(-c2ccc(C#N)c(F)c2)c1 [Example 345] | > 1000 nM |
| C[C@]1(N)CCN(Cc2cccc(-c3ccc(C#N)c(F)c3)c2-c2ccns2)C1 [Example 302, 3'-{[(3S)-3-amino-3-methylpyrrolidin-1-yl]methyl}-3-fluoro-2'-(1,2-thiazol-5-yl)-[1,1'-biphenyl]-4-carbonitrile] | < 10 nM |
| N#Cc1ccc(-c2cccc(CN3[C@@H]4CC[C@H]3[C@@H](N)C4)c2C2CCC2)cc1F (racemic) [Example 218, 3'-{[(1S,2S,4R)-2-amino-7-azabicyclo[2.2.1]heptan-7-yl]methyl}-2'-cyclobutyl-3-fluoro-[1,1'-biphenyl]-4-carbonitrile] | 10 to 25 nM |
| CCOCC1(O)CCN(c2ccc(CC3CNCCO3)cc2-c2ccc(C#N)c(F)c2)CC1 (stereo not drawn) [Example 63, 2′-[4-(ethoxymethyl)-4-hydroxypiperidin-1-yl]-3-fluoro-5′-[(morpholin-2-yl)methyl]-[1,1′-biphenyl]-4-carbonitrile] | 100 to 1000 nM |
| N#Cc1ccc(-c2cccc(CN3[C@H]4CC[C@@H]3[C@H](N)C4)c2CC2CC2)cc1F (single isomer, unassigned) [Example 221] | 25 to 100 nM |
| N#Cc1ccc(-c2cccc(CN3CC[C@@H]4NCC[C@@H]43)c2C2CC2)cc1F [Example 273, 3'-{[(3aS,6aS)-octahydropyrrolo[3,2-b]pyrrol-1-yl]methyl}-2'-cyclopropyl-3-fluoro-[1,1'-biphenyl]-4-carbonitrile] | 25 to 100 nM |
| N#Cc1ccc(-c2cccc(CC3CNCCO3)c2-c2ccncc2)cc1F (stereo not drawn) [Example 148, 3-fluoro-3′-[(morpholin-2-yl)methyl]-2′-(pyridin-4-yl)-[1,1′-biphenyl]-4-carbonitile] | 100 to 1000 nM |
| Cc1cccc(-c2ccc(CN3[C@@H]4CC[C@H]3[C@@H](N)C4)cc2-c2ccc(C#N)c(F)c2)n1 (racemic) [Example 256, 5'-{[(1S,2S,4R)-2-amino-7-azabicyclo[2.2.1]heptan-7-yl]methyl}-3-fluoro-2'-(6-methylpyridin-2-yl)-[1,1'-biphenyl]-4-carbonitrile] | 25 to 100 nM |
| CC(C)(O)Cc1ccc(-c2ccc(CC3CNCCO3)cc2-c2ccc(C#N)c(F)c2)c(F)c1 (stereo not drawn) [Example 104, 3-fluoro-2′-[2-fluoro-4-(2-hydroxy-2-methylpropyl)phenyl]-5′-[(morpholin-2-yl)methyl]-[1,1′-biphenyl]-4-carbonitrile] | 25 to 100 nM |
| CC1(O)CCN(c2ccc(CC3CNCCO3)cc2-c2ccc(C#N)c(F)c2)CC1 (stereo not drawn) [Example 138, 3-fluoro-2′-(4-hydroxy-4-methylpiperidin-1-yl)-5′-[(morpholin-2-yl)methyl]-[1,1′-biphenyl]-4-carbonitrile] | 25 to 100 nM |
| N#Cc1ccc(-c2cccc(CC3CNCCO3)c2N2CC(O)C2)cc1F (stereo not drawn) [Example 159, 3-fluoro-2′-(3-hydroxyazetidin-1-yl)-3′-[(morpholin-2-yl)methyl]-[1,1′-biphenyl]-4-carbonitrile] | > 1000 nM |
